Numbered stars: 1 amine (or outer) side, 2 acyl side, 3 side chain; on linkers, the order of the positions; unused ones are H or OH. Bridge positions count the residues as written; N and C are the ends. Peptide text beside a SMILES is read from it. Suc = O=C(CCC(=O)[*:2])[*:1]
System: calcium concentration in the serum
Assay: Test 1: reduction of calcium level in serum after tail vein administration to rats
Format: in vivo, rats of the Wistar strain
Details: 1 ml/kg tail vein, female Wistar rats
Procedure: Six-weeks-old female rats of the Wistar strain (each group consisting of 4 rats) were used as the test animal, and the peptides of the present invention obtained in the examples given hereinafter were tested at concentrations adjusted with a 1% aqueous solution of sodium acetate (pH 4,0) to which 0.1% bovine serum albumin (BSA) was added. The solution was adjusted to a concentration of 166 μg/ml 830 ng/ml or 83 ng/ml and administered with the tail vein in an amount of 1 ml/kg. The back of the rat was fixed and blood was collected just before the administration, and at predetermined intervals after the administration, from the neck vein. The amount of blood collected each time was 0.3 ml. The sampled blood was subjected to centrifugal separation at 3500 rpm for 20 minutes to separate serum and the calcium content in the separated serum was measured by TBA-380 (supplied by Toshiba) using a Wako calcium-measuring kit (o-cpc method), and the ratio of reduction of the calcium concentration in the serum was determined.

[1] = concentration 83 ng/ml, 0 hour (just before administration)
[2] = concentration 83 ng/ml, 2 hours
[3] = concentration 83 ng/ml, 4 hours
[4] = concentration 83 ng/ml, 6 hours
[5] = concentration 830 ng/ml, 0 hour (just before administration)
[6] = concentration 830 ng/ml, 1 hour
[7] = concentration 830 ng/ml, 2 hours
[8] = concentration 830 ng/ml, 4 hours
[9] = concentration 830 ng/ml, 6 hours

Row | Compound | Serum calcium level as percent of pre-dose baseline [1] | Serum calcium level as percent of pre-dose baseline (concentration 83 ng/ml, 1 hour) | Serum calcium level as percent of pre-dose baseline [2] | Serum calcium level as percent of pre-dose baseline [3] | Serum calcium level as percent of pre-dose baseline [4] | Serum calcium level as percent of pre-dose baseline [5] | Serum calcium level as percent of pre-dose baseline [6] | Serum calcium level as percent of pre-dose baseline [7] | Serum calcium level as percent of pre-dose baseline [8] | Serum calcium level as percent of pre-dose baseline [9]
1 | CC[C@H](C)[C@H](NC(=O)[C@H](C)NC(=O)[C@@H](NC(=O)[C@H](CCC(N)=O)NC(=O)[C@@H]1CCCN1C(=O)[C@H](Cc1ccc(O)cc1)NC(=O)[C@@H](NC(=O)[C@H](CCC(N)=O)NC(=O)[C@H](CC(C)C)NC(=O)[C@H](CCCCN)NC(=O)[C@H](Cc1c[nH]cn1)NC(=O)[C@H](CC(C)C)NC(=O)[C@H](CCC(=O)O)NC(=O)[C@H](CCC(N)=O)NC(=O)[C@H](CO)NC(=O)[C@H](CC(C)C)NC(=O)[C@H](CCCCN)NC(=O)CNC(=O)[C@H](CC(C)C)NC(=O)[C@H](CC(C)C)NC(=O)[C@@H]1CSSC[C@H](N)C(=O)NCC(=O)N[C@@H](CC(N)=O)C(=O)N[C@@H](CC(C)C)C(=O)N[C@@H](CO)C(=O)N[C@@H]([C@@H](C)O)C(=O)N1)[C@@H](C)O)[C@@H](C)O)C(=O)NCC(=O)N[C@H](C(=O)NCC(=O)N[C@@H](C)C(=O)N1CCC[C@H]1C(N)=O)C(C)C [Peptide No. 13] (H-CGNLSTCLLGKLSQELHKLQTYPQTAIGVGAP-NH2; disulfide 1-7) | 100.0% | 68.9% | 70.5% | 84.4% | 86.8% | 100.0% | 71.3% | 62.7% | 58.3% | 61.8%
2 | CC[C@H](C)[C@H](NC(=O)[C@H](C)NC(=O)[C@@H](NC(=O)[C@H](CCC(N)=O)NC(=O)[C@@H]1CCCN1C(=O)[C@H](Cc1ccc(O)cc1)NC(=O)[C@@H](NC(=O)[C@H](CCC(N)=O)NC(=O)[C@H](CC(C)C)NC(=O)[C@H](CCCCN)NC(=O)[C@H](Cc1c[nH]cn1)NC(=O)[C@H](CC(C)C)NC(=O)[C@H](CCC(=O)O)NC(=O)[C@H](CCC(N)=O)NC(=O)[C@H](CO)NC(=O)[C@H](CC(C)C)NC(=O)[C@H](CCCCN)NC(=O)CNC(=O)[C@H](CC(C)C)NC(=O)[C@H](CCSC)NC(=O)[C@@H]1CCCCNC(=O)C[C@H](N)C(=O)N[C@@H](CC(N)=O)C(=O)N[C@@H](CC(C)C)C(=O)N[C@@H](CO)C(=O)N[C@@H]([C@@H](C)O)C(=O)N1)[C@@H](C)O)[C@@H](C)O)C(=O)NCC(=O)N[C@H](C(=O)NCC(=O)N[C@@H](C)C(=O)N1CCC[C@H]1C(N)=O)C(C)C [Peptide No. 23] (H-DNLSTKMLGKLSQELHKLQTYPQTAIGVGAP-NH2; lactam 1-6) | 100.0% | 73.6% | 72.2% | 83.3% | 82.4% | 100.0% | 68.5% | 61.6% | 56.9% | 71.1%
3 | CC[C@H](C)[C@H](NC(=O)[C@H](C)NC(=O)[C@@H](NC(=O)[C@H](CCC(N)=O)NC(=O)[C@@H]1CCCN1C(=O)[C@H](Cc1ccc(O)cc1)NC(=O)[C@@H](NC(=O)[C@H](CCC(N)=O)NC(=O)[C@H](CC(C)C)NC(=O)[C@H](CCCCN)NC(=O)[C@H](Cc1c[nH]cn1)NC(=O)[C@H](CC(C)C)NC(=O)[C@H](CCC(=O)O)NC(=O)[C@H](CCC(N)=O)NC(=O)[C@H](CO)NC(=O)[C@H](CC(C)C)NC(=O)[C@H](CCCCN)NC(=O)CNC(=O)[C@H](CC(C)C)NC(=O)[C@H](CC(C)C)NC(=O)[C@@H]1CCCCNC(=O)C[C@H](N)C(=O)N[C@@H](CC(N)=O)C(=O)N[C@@H](CC(C)C)C(=O)N[C@@H](CO)C(=O)N[C@@H]([C@@H](C)O)C(=O)N1)[C@@H](C)O)[C@@H](C)O)C(=O)NCC(=O)N[C@H](C(=O)NCC(=O)N[C@@H](C)C(=O)N1CCC[C@H]1C(N)=O)C(C)C [Peptide No. 24] (H-DNLSTKLLGKLSQELHKLQTYPQTAIGVGAP-NH2; lactam 1-6) | 100.0% | 71.1% | 70.7% | 85.6% | 80.1% | 100.0% | 69.1% | 61.9% | 54.4% | 53.0%
4 | CC[C@H](C)[C@H](NC(=O)[C@H](C)NC(=O)[C@@H](NC(=O)[C@H](CCC(N)=O)NC(=O)[C@@H]1CCCN1C(=O)[C@H](Cc1ccc(O)cc1)NC(=O)[C@@H](NC(=O)[C@H](CCC(N)=O)NC(=O)[C@H](CC(C)C)NC(=O)[C@H](CCCCN)NC(=O)[C@H](Cc1c[nH]cn1)NC(=O)[C@H](CC(C)C)NC(=O)[C@H](CCC(=O)O)NC(=O)[C@H](CCC(N)=O)NC(=O)[C@H](CO)NC(=O)[C@H](CC(C)C)NC(=O)[C@H](CCCCN)NC(=O)CNC(=O)[C@H](CC(C)C)NC(=O)[C@H](CC(C)C)NC(=O)[C@@H]1CCCCNC(=O)C[C@H](NC(C)=O)C(=O)N[C@@H](CC(N)=O)C(=O)N[C@@H](CC(C)C)C(=O)N[C@@H](CO)C(=O)N[C@@H]([C@@H](C)O)C(=O)N1)[C@@H](C)O)[C@@H](C)O)C(=O)NCC(=O)N[C@H](C(=O)NCC(=O)N[C@@H](C)C(=O)N1CCC[C@H]1C(N)=O)C(C)C [Peptide No. 25] (Ac-DNLSTKLLGKLSQELHKLQTYPQTAIGVGAP-NH2; lactam 1-6) | 100.0% | 76.9% | 67.6% | 66.7% | 71.3% | 100.0% | 73.4% | 64.3% | 51.8% | 44.3%
5 | CC[C@H](C)[C@H](NC(=O)[C@H](C)NC(=O)[C@@H](NC(=O)[C@H](CCC(N)=O)NC(=O)[C@@H]1CCCN1C(=O)[C@H](Cc1ccc(O)cc1)NC(=O)[C@@H](NC(=O)[C@H](CCC(N)=O)NC(=O)[C@H](CC(C)C)NC(=O)[C@H](CCCCN)NC(=O)[C@H](Cc1c[nH]cn1)NC(=O)[C@H](CC(C)C)NC(=O)[C@H](CCC(=O)O)NC(=O)[C@H](CCC(N)=O)NC(=O)[C@H](CO)NC(=O)[C@H](CC(C)C)NC(=O)[C@H](CCCCN)NC(=O)CNC(=O)[C@H](CC(C)C)NC(=O)[C@H](CC(C)C)NC(=O)[C@@H]1CCCCNC(=O)CCC(=O)N[C@@H](CC(N)=O)C(=O)N[C@@H](CC(C)C)C(=O)N[C@@H](CO)C(=O)N[C@@H]([C@@H](C)O)C(=O)N1)[C@@H](C)O)[C@@H](C)O)C(=O)NCC(=O)N[C@H](C(=O)NCC(=O)N[C@@H](C)C(=O)N1CCC[C@H]1C(N)=O)C(C)C [Peptide No. 26] (NLSTKLLGKLSQELHKLQTYPQTAIGVGAP-NH2; linker N-5 via Suc) | 100.0% | 78.9% | 67.6% | 70.4% | 75.2% | 100.0% | 73.9% | 62.9% | 52.1% | 48.2%
6 | CC[C@H](C)[C@H](NC(=O)[C@H](C)NC(=O)[C@@H](NC(=O)[C@H](CCC(N)=O)NC(=O)[C@@H]1CCCN1C(=O)[C@H](Cc1ccc(O)cc1)NC(=O)[C@@H](NC(=O)[C@H](CCC(N)=O)NC(=O)[C@H](CC(C)C)NC(=O)[C@H](CCCCN)NC(=O)[C@H](Cc1c[nH]cn1)NC(=O)[C@H](CC(C)C)NC(=O)[C@H](CCC(=O)O)NC(=O)[C@H](CCC(N)=O)NC(=O)[C@H](CO)NC(=O)[C@H](CC(C)C)NC(=O)[C@H](CCCCN)NC(=O)CNC(=O)[C@H](CC(C)C)NC(=O)[C@H](CCSC)NC(=O)[C@@H]1CC(=O)NCCCC[C@H](N)C(=O)N[C@@H](CC(N)=O)C(=O)N[C@@H](CC(C)C)C(=O)N[C@@H](CO)C(=O)N[C@@H]([C@@H](C)O)C(=O)N1)[C@@H](C)O)[C@@H](C)O)C(=O)NCC(=O)N[C@H](C(=O)NCC(=O)N[C@@H](C)C(=O)N1CCC[C@H]1C(N)=O)C(C)C [Peptide No. 27] (H-KNLSTDMLGKLSQELHKLQTYPQTAIGVGAP-NH2; lactam 1-6) | 100.0% | 93.5% | 94.3% | 86.4% | 82.7% | 100.0% | 79.5% | 94.1% | 87.0% | 82.9%

— patent US6127519A, “Calcitonin derivatives” (Tsumura & Co., priority 1990, dated 2000)
